Experiment [1] relates to RAW264.7. Briefly: Antiinflammatory activity in mouse RAW264.7 cells assessed as inhibition of LPS-induced PGE2 production incubated for 1 hr prior to LPS challenge measured after 24 hrs by EIA. It is filed as functional, cell-based.
Experiment [2] deals with RAW264.7. Briefly: Antiinflammatory activity in mouse RAW264.7 cells assessed as inhibition of LPS-induced nitrite production after 24 hrs by Griess assay. It is filed as functional, cell-based. As to conditions: RAW264.7, 24 h. In general terms: Nitrite, measured by Griess reagent, commonly stands in for NO production.
The test system of experiment [3] is RAW264.7. Briefly: Cytotoxicity against mouse RAW264.7 cells assessed as cell viability after 24 hrs by MTT assay. The experiment is classed as cell-based. The following applies: RAW264.7, 24 h. (Formazan colour is commonly taken as a measure of viable cells.)

Usually IC50 stands for the concentration at which inhibition is half-maximal.

With `N#CCc1c[nH]c2ccc(OCc3ccccc3)cc12`, the IC50 was above 25 µM in experiment [1], 19.4 µM in experiment [2] and 82.7 µM in experiment [3].
For `COc1ccc2c(CC#N)c[nH]c2c1`, the concentration for half-maximal inhibition (IC50) in experiment [1] is 83.6 µM; in experiment [2], above 100 µM; in experiment [3], 161 µM.
For `COC(=O)n1cc(CC#N)c2ccc(O)cc21`, in that order: 15.2 µM, above 100 µM and 339 µM.
For `COC(=O)Cn1cc(CC#N)c2ccc(O)cc21`, in that order: above 100 µM, above 100 µM and above 400 µM.
As for `Cn1cc(CC#N)c2cccc(O)c21`, the IC50 is 6.22 µM in experiment [1], 39.8 µM in experiment [2] and above 400 µM in experiment [3].
For `CC(=O)n1cc(CC#N)c2ccc(O)cc21`, in that order: 41.3 µM, 82.1 µM and above 400 µM.
For `Cn1cc(CC#N)c2ccc(O)cc21`, in that order: 11.7 µM, 80.1 µM and 372 µM.
Regarding `Cn1cc(CC#N)c2c(O)cccc21`, the values for the IC50 in experiment [1], in experiment [2] and in experiment [3] were 16 µM, 57.1 µM and above 400 µM, respectively.
In the case of `Cn1cc(CC#N)c2cc(O)ccc21`, the IC50 was 57.7 µM in experiment [1], above 100 µM in experiment [2] and 325 µM in experiment [3].
For `N#CCc1c[nH]c2c(OCc3ccccc3)cccc12`, in that order: 73.1 µM, 48.7 µM and above 400 µM.
The like results for `N#CCc1c[nH]c2cccc(OCc3ccccc3)c12` were, in that order, 32.4 µM, 45.6 µM and 105 µM.
For `N#CCc1c[nH]c2cc(OCc3ccccc3)ccc12`, the IC50 in experiment [1] is above 25 µM; in experiment [2], 20.4 µM; in experiment [3] it was 53.2 µM.
Take `COc1cccc2c(CC#N)c[nH]c12`: the 50% inhibitory concentration (IC50) in experiment [1] is above 100 µM; in experiment [2] it was above 100 µM; in experiment [3], above 400 µM.
Turning to `COc1ccc2[nH]cc(CC#N)c2c1`, the concentration for half-maximal inhibition (IC50) in experiment [1] was above 100 µM; in experiment [2], above 100 µM; in experiment [3], 99.6 µM.
Consider `COc1cccc2[nH]cc(CC#N)c12` [ARVELEXIN], for which the IC50 worked out at 13.9 µM in experiment [1], 83.6 µM in experiment [2] and 207 µM in experiment [3].
